Measured values as given in PubChem BioAssay AID248 (DTP/NCI, 2004).
Several values for one entry are separate records, joined by “and”; a condition that tells them apart may be missing. Equal entries are not always repeated. Inconclusive results and toxic doses are left out. No stated cut-off is given here; in the data, active means T/C of 150% or more; inactive means T/C below 125%.

Test system: L1210 leukemia ip in BDF1 mice, survival T/C
Assay: NCI In Vivo Anticancer Drug Screen. Data for tumor model L1210 Leukemia (intraperitoneal) in B6D2F1 (BDF1) mice
Details: endpoint: mean survival time, higher = longer survival
Outline: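 Transplanted-tumor mice were given test agent; controls received vehicle only. Survival readings from the two groups were divided (treated over control).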

[1] = dose: 50.0 mg/kg/injection, schedule: Q04DX003 (ip), vehicle: saline
[2] = dose: 100.0 mg/kg/injection, schedule: Q01DX009 (ip), vehicle: saline
[3] = dose: 100.0 mg/kg/injection, schedule: Q04DX003 (ip), vehicle: saline
[4] = dose: 200.0 mg/kg/injection, schedule: Q01DX009 (ip), vehicle: saline
[5] = dose: 200.0 mg/kg/injection, schedule: Q04DX003 (ip), vehicle: saline
[6] = dose: 100.0 mg/kg/injection, schedule: Q01DX009 (ip), vehicle: saline with Tween-80
[7] = dose: 200.0 mg/kg/injection, schedule: Q01DX009 (ip), vehicle: saline with Tween-80
[8] = dose: 400.0 mg/kg/injection, schedule: Q01DX009 (ip), vehicle: saline with Tween-80
[9] = dose: 25.0 mg/kg/injection, schedule: Q01DX009 (ip), vehicle: Klucel (hydroxypropylcellulose) (HPC)
[10] = dose: 100.0 mg/kg/injection, schedule: Q01DX009 (ip), vehicle: Klucel (hydroxypropylcellulose) (HPC)
[11] = dose: 200.0 mg/kg/injection, schedule: Q01DX009 (ip), vehicle: Klucel (hydroxypropylcellulose) (HPC)
[12] = dose: 25.0 mg/kg/injection, schedule: Q04DX003 (ip), vehicle: Klucel (hydroxypropylcellulose) (HPC)
[13] = dose: 50.0 mg/kg/injection, schedule: Q01DX009 (ip), vehicle: Klucel (hydroxypropylcellulose) (HPC)
[14] = dose: 50.0 mg/kg/injection, schedule: Q04DX003 (ip), vehicle: Klucel (hydroxypropylcellulose) (HPC)
[15] = dose: 100.0 mg/kg/injection, schedule: Q01DX001 (ip), vehicle: Klucel (hydroxypropylcellulose) (HPC)
[16] = dose: 100.0 mg/kg/injection, schedule: Q04DX003 (ip), vehicle: Klucel (hydroxypropylcellulose) (HPC)
[17] = dose: 200.0 mg/kg/injection, schedule: Q01DX001 (ip), vehicle: Klucel (hydroxypropylcellulose) (HPC)
[18] = dose: 100.0 mg/kg/injection, schedule: Q01DX001 (ip), vehicle: saline
[19] = dose: 200.0 mg/kg/injection, schedule: Q01DX001 (ip), vehicle: saline
[20] = dose: 200.0 mg/kg/injection, schedule: Q04DX003 (ip), vehicle: Klucel (hydroxypropylcellulose) (HPC)
[21] = dose: 400.0 mg/kg/injection, schedule: Q01DX001 (ip), vehicle: saline

Measured: T/C

CCN(CC)CC(=O)NCC(CC)(CCN1CCCCC1)c1cccc2ccccc12 (stereo not drawn)
inactive: [1] 92 % of control | [2] 114 % of control | [3] 102 % of control | [4] 102 % of control | [5] 97 % of control

COC(=O)/C=C/N(Cc1ccccc1)Cc1ccccc1
inactive: [6] 103 % of control | [7] 95 % of control | [8] 91 % of control

O=C1CNC(c2ccccc2)c2cc(Cl)ccc2N1 (stereo not drawn)
inactive: [9] 101 % of control | [10] 92 % of control | [11] 87 % of control

CCSCC1OC(n2cnc3c(N)nc(F)nc32)C(O)C1O (stereo not drawn)
inactive: dose: 25.0 mg/kg/injection, schedule: Q01DX001 (ip), vehicle: Klucel (hydroxypropylcellulose) (HPC) 98 % of control | [9] 98 % of control | [12] 97 % of control | dose: 50.0 mg/kg/injection, schedule: Q01DX001 (ip), vehicle: Klucel (hydroxypropylcellulose) (HPC) 104 % of control | [13] 96 % of control | [14] 103 % of control | [15] 97 % of control and 102 % of control | [16] 92 % of control | [17] 86 % of control

NCCSSSSCCN
inactive: [18] 96 % of control | [19] 105 % of control

CC1(C)N=C(N)N=C(N)N1c1ccc(CCc2ccccc2)c(Cl)c1
inactive: dose: 3.13 mg/kg/injection, schedule: Q01DX009 (ip), vehicle: Klucel (hydroxypropylcellulose) (HPC) 100 % of control | dose: 6.25 mg/kg/injection, schedule: Q01DX009 (ip), vehicle: Klucel (hydroxypropylcellulose) (HPC) 104 % of control | dose: 12.5 mg/kg/injection, schedule: Q01DX009 (ip), vehicle: Klucel (hydroxypropylcellulose) (HPC) 104 % of control | dose: 12.5 mg/kg/injection, schedule: Q04DX003 (ip), vehicle: Klucel (hydroxypropylcellulose) (HPC) 93 % of control | [9] 107 % of control | [12] 93 % of control | [14] 94 % of control

O=[N+]([O-])c1cc(S(=O)(=O)F)cc(Cl)c1O
inactive: [10] 97 % of control | [11] 89 % of control

NCC1OCOC2C(C(=O)O)OCOC12 (stereo not drawn)
inactive: dose: 50.0 mg/kg/injection, schedule: Q04DX002 (ip), vehicle: saline 101 % of control | dose: 100.0 mg/kg/injection, schedule: Q04DX002 (ip), vehicle: saline 96 % of control | dose: 200.0 mg/kg/injection, schedule: Q04DX002 (ip), vehicle: saline 101 % of control | dose: 400.0 mg/kg/injection, schedule: Q04DX002 (ip), vehicle: saline 96 % of control

CC(=O)NN(c1ccc([N+](=O)[O-])cc1)c1ccc([N+](=O)[O-])cc1
inactive: [13] 97 % of control | [10] 90 % of control | [16] 93 % of control | [20] 95 % of control

CN(C1CCCC1)C1CCCC1
inactive: dose: 10.0 mg/kg/injection, schedule: Q01DX009 (ip), vehicle: Klucel (hydroxypropylcellulose) (HPC) 106 % of control | dose: 10.0 mg/kg/injection, schedule: Q04DX003 (ip), vehicle: Klucel (hydroxypropylcellulose) (HPC) 102 % of control | dose: 20.0 mg/kg/injection, schedule: Q01DX009 (ip), vehicle: Klucel (hydroxypropylcellulose) (HPC) 104 % of control | dose: 20.0 mg/kg/injection, schedule: Q04DX003 (ip), vehicle: Klucel (hydroxypropylcellulose) (HPC) 94 % of control | dose: 40.0 mg/kg/injection, schedule: Q01DX009 (ip), vehicle: Klucel (hydroxypropylcellulose) (HPC) 102 % of control | dose: 40.0 mg/kg/injection, schedule: Q04DX003 (ip), vehicle: Klucel (hydroxypropylcellulose) (HPC) 96 % of control

CCOC(=O)N=C=O
inactive: dose: 100.0 mg/kg/injection, schedule: Q01DX009 (ip), vehicle: water 103 % of control | dose: 100.0 mg/kg/injection, schedule: Q04DX003 (ip), vehicle: water 95 % of control | dose: 200.0 mg/kg/injection, schedule: Q01DX009 (ip), vehicle: water 100 % of control | dose: 200.0 mg/kg/injection, schedule: Q04DX003 (ip), vehicle: water 101 % of control | dose: 400.0 mg/kg/injection, schedule: Q04DX003 (ip), vehicle: water 101 % of control

COc1ccccc1-n1c(O)c(N=Nc2ccccc2)c(=O)n(-c2ccc(C)cc2)c1=S
inactive: [14] 100 % of control | [16] 98 % of control | [20] 102 % of control

O=C(/C=C\c1ccccc1)NCCNC(=O)/C=C/c1ccccc1
inactive: [18] 105 % of control | [19] 94 % of control | [21] 108 % of control

Clc1nnc(-c2ccccc2)c(-c2ccccc2)n1
inactive: dose: 25.0 mg/kg/injection, schedule: Q01DX009 (ip), vehicle: saline with Tween-80 95 % of control | dose: 50.0 mg/kg/injection, schedule: Q01DX009 (ip), vehicle: saline with Tween-80 95 % of control | [6] 97 % of control

CC(=O)NC1CC2c3ccccc3C1([N+](=O)[O-])c1ccccc12 (stereo not drawn)
inactive: [10] 107 % of control | [16] 107 % of control | [3] 107 % of control | [11] 101 % of control | [20] 105 % of control | [5] 105 % of control | dose: 400.0 mg/kg/injection, schedule: Q01DX009 (ip), vehicle: Klucel (hydroxypropylcellulose) (HPC) 97 % of control | dose: 400.0 mg/kg/injection, schedule: Q04DX003 (ip), vehicle: Klucel (hydroxypropylcellulose) (HPC) 97 % of control | dose: 400.0 mg/kg/injection, schedule: Q04DX003 (ip), vehicle: saline 97 % of control

Cc1nc2ccccc2c(=O)n1NC(=O)c1cc([N+](=O)[O-])cc([N+](=O)[O-])c1
inactive: [6] 90 % of control | [7] 97 % of control | [8] 93 % of control

COC(=O)C(CCl)NC(=O)c1ccccc1 (stereo not drawn)
inactive: dose: 50.0 mg/kg/injection, schedule: Q01DX009 (ip), vehicle: saline 105 % of control | [2] 90 % of control | [16] 102 % of control | [4] 95 % of control | [20] 96 % of control

O=C(/C=C/c1cccc(Cl)c1)c1ccccc1
inactive: dose: 50.0 mg/kg/injection, schedule: Q04DX002 (ip), vehicle: saline with Tween-80 108 % of control | dose: 100.0 mg/kg/injection, schedule: Q04DX002 (ip), vehicle: saline with Tween-80 115 % of control | dose: 200.0 mg/kg/injection, schedule: Q04DX002 (ip), vehicle: saline with Tween-80 97 % of control

CC1(C)OC2C(CNCCO)OC(OCc3ccccc3)C2O1 (stereo not drawn)
inactive: [1] 102 % of control | [3] 94 % of control | [5] 88 % of control

O=N/N=c1/sc2ccccc2n1-c1ccccc1
inactive: [15] 103 % of control | [17] 94 % of control | dose: 400.0 mg/kg/injection, schedule: Q01DX001 (ip), vehicle: Klucel (hydroxypropylcellulose) (HPC) 100 % of control

c1cc(C2=NCCN2)ccc1C1=NCCN1
inactive: dose: 15.0 mg/kg/injection, schedule: Q01DX Z (ip), vehicle: saline 104 % of control | dose: 30.0 mg/kg/injection, schedule: Q01DX Z (ip), vehicle: saline 102 % of control | dose: 60.0 mg/kg/injection, schedule: Q01DX Z (ip), vehicle: saline 106 % of control | dose: 120.0 mg/kg/injection, schedule: Q01DX Z (ip), vehicle: saline 101 % of control

O=S(=O)(CC(O)(c1ccccc1)c1ccccc1)CC(O)(c1ccccc1)c1ccccc1
inactive: dose: 50.0 mg/kg/injection, schedule: Q01DX001 (ip), vehicle: saline 93 % of control | [18] 91 % of control | [19] 93 % of control | [21] 87 % of control

O=c1[nH]c(C(F)(F)F)c(Cc2ccccc2)c(=O)[nH]1
inactive: dose: 100.0 mg/kg/injection, schedule: Q01DX001 (ip), vehicle: gum acacia 95 % of control | dose: 200.0 mg/kg/injection, schedule: Q01DX001 (ip), vehicle: gum acacia 107 % of control

CC/C(=N/O)c1ccccc1
inactive: dose: 100.0 mg/kg/injection, schedule: Q04DX003 (ip), vehicle: saline sonified 110 % of control | dose: 200.0 mg/kg/injection, schedule: Q04DX003 (ip), vehicle: saline sonified 95 % of control | dose: 400.0 mg/kg/injection, schedule: Q04DX003 (ip), vehicle: saline sonified 93 % of control
